Literature values, collected in Sander's compilation of Henry's law constants (doi:10.1002/cite.330370802).

Test: Henry solubility constant Hcp at 303 K (mol/(m3 Pa))
Conditions: reference: Irmann (1965); cited value

In the case of `FC(F)=C(F)F` [tetrafluoroethene], the “Henry solubility constant Hcp at 303 K” value is listed as 9.8e-06.

Test: Henry solubility constant Hcp at 293 K (mol/(m3 Pa))
Conditions: reference: Irmann (1965); cited value

For `FC(F)(Cl)C(F)(F)Cl` [1,2-dichlorotetrafluoroethane], the “Henry solubility constant Hcp at 293 K” value is listed as 8.1e-06.

Test: Henry solubility constant Hcp at 294 K (mol/(m3 Pa))
Conditions: reference: Irmann (1965); cited value

First: CC(F)F [1,1-difluoroethane]
Second: CC(F)(F)Cl [1-chloro-1,1-difluoroethane]
The “Henry solubility constant Hcp at 294 K” value of the first is higher: 0.00048 for the first, 0.00019 for the second.

In the case of `FC(F)(F)C(F)(Cl)Cl` [1,1-dichlorotetrafluoroethane], the “Henry solubility constant Hcp at 294 K” value is given as 5.8e-06.

Test: Henry solubility constant Hcp at 298.15 K (mol/(m3 Pa))
Conditions: reference: Irmann (1965); cited value

Going from `FC(F)(F)Cl` [chlorotrifluoromethane] to `FC(F)(F)F` [tetrafluoromethane], the “Henry solubility constant Hcp” value falls from 5.7e-06 to 1.9e-06.

Compared with `FC(F)(F)C(F)(F)Cl` [chloropentafluoroethane], `FC(F)(F)CCl` [2-chloro-1,1,1-trifluoroethane] is higher in “Henry solubility constant Hcp” value: 3.2e-06 for the first, 0.00037 for the second.

Going from `FC(F)(Cl)Cl` [dichlorodifluoromethane] to `FC(F)(F)Br` [bromotrifluoromethane], the “Henry solubility constant Hcp” value falls from 2.3e-05 to 2e-05.

First: C=CC=C [1,3-butadiene]
Second: CCCl [chloroethane]
The “Henry solubility constant Hcp” value of the first is lower: 0.00015 for the first, 0.00063 for the second.

For `FC(F)F` [trifluoromethane], the “Henry solubility constant Hcp” value is listed as 0.0001.
